Measured values: patent US12077778B2, “Methods of generating human inner ear sensory epithelia and sensory neurons” (INDIANA UNIVERSITY RESEARCH AND TECHNOLOGY CORPORATION, priority 2015, dated 2024)
Entries after “also recorded” stand apart in the source; their conditions may differ.

Legend:
Type in all cases: cell-based, human
OEPD-induced aggregates = test: qPCR of PAX8/PAX2 expression after WNT and FGF signaling modulation, days 8-10; settings: one exploratory experiment
Experimental: Thus, we changed strategies by lengthening the initial culture phase to 12 days (with addition of fresh media on day 8) and testing the effect of transitioning the aggregates to Matrigel™ droplets.
Quantitative PCR. Analysis was performed as previously described on an ABI PRISM 7900HT Sequence Detection System (Applied Biosystems) or a Bio-Rad CFX96 quantitative PCR machine (Bio-Rad)^6. Data were normalized to L27 expression (internal control) and the fold change was calculated relative to Ct values from d0 WA25 aggregates using the ΔΔCt method. Unless stated otherwise, data represent at least 3 separate biological samples from separate experiments. All indicators of statistical significance refer to comparisons between a given condition and the control group. Refer to Table 4 for primer details.

WA25 cell aggregates = test: Non-neural ectoderm induction in WA25 hESC aggregates (qPCR, immunostaining)
Experimental: Following a 2-day incubation in E8 Medium, we transferred aggregates to CDM containing a low concentration of Matrigel and FGF-2 to stimulate epithelization and ectoderm differentiation on the aggregate surface. […] Remarkably, 100% of SB treated aggregates generated TFAP2^+ E-cadherin (ECAD)^+ epithelium with a surface ectoderm-like morphology by days 4-6 of differentiation—a time scale consistent with human embryogenesis (n=15 aggregates, 3 experiments; FIGS. 1B-1E; FIGS. 3A-3G). Over a period of 20 days, the epithelium expanded into a cyst composed of TFAP2^+ Keratin-5 (KRT5)^+ keratinocyte-like cells (FIGS. 6A-6E). From these findings, we concluded that treating WA25 cell aggregates with SB is sufficient to induce a non-neural epithelium.
(§1) Curious whether endogenous BMP activity is sufficient for non-neural specification, we performed a co-treatment with the BMP inhibitor, LDN-193189 (hereafter, LSB; dual LDN/SB treatment referred to as LSB). […] We reasoned that variation in endogenous BMP levels may underlie the different outcomes and the BMP concentration may need to be fine-tuned for each cell line. […] With either the SB or SBB approaches, the resulting epithelia closely resembled […] generated with mPSCs^5,6. In contrast to our mouse culture, non-neural conversion occurs without off-target induction of Brachyury (BRA)^+ mesendoderm cells (FIGS. 9A-9C). The following data were generated using either the SB (WA25) or SBB (mND2-0) approaches.
hPSC differentiation. To start differentiation, hPSC cells were dissociated with StemPro Accutase (Invitrogen) and distributed, 5,000 cells per well, onto 96-well V-bottom plates in E8 medium containing 20 μM Y-27632 (Stemgent) and Normocin. […] CDM contained a 50:50 mixture of F-12 Nutrient Mixture with GlutaMAX (Gibco) and Iscove's Modified Dulbecco's Medium with GlutaMAX (IMDM; Gibco) additionally supplemented with 0.5% Bovine Serum Albumin (BSA), 1× Chemically Defined Lipid Concentrate (Invitrogen), […] (Sigma), 15 μg ml^−1 Transferrin (Sigma), 450 μM Mono-Thioglycerol, and Normocin (see Table 1 for a detailed formulation). […] For some experiments, CDM containing a 18 μM CHIR99021 (3 μM final concentration; Stemgent) was added to the pre-existing 125 μl of media in each well—we determined that this treatment is optional for inner ear organoid production, but may improve induction of otic placode-like cells. […]
Quantitative PCR. Analysis was performed as previously described on an ABI PRISM 7900HT Sequence Detection System (Applied Biosystems) or a Bio-Rad CFX96 quantitative PCR machine (Bio-Rad)^6. Data were normalized to L27 expression (internal control) and the fold change was calculated relative to Ct values from d0 WA25 aggregates using the ΔΔCt method. […]

mND2-0 iPSCs = test: Non-neural ectoderm induction in mND2-0 iPSC aggregates
Source text: as §1
hPSC differentiation. To start differentiation, hPSC cells were dissociated with StemPro Accutase (Invitrogen) and distributed, 5,000 cells per well, onto 96-well V-bottom plates in E8 medium containing 20 μM Y-27632 (Stemgent) and Normocin. […] For some experiments, CDM containing a 18 μM CHIR99021 (3 μM final concentration; Stemgent) was added to the pre-existing 125 μl of media in each well—we determined that this treatment is optional for inner ear organoid production, but may improve induction of otic placode-like cells. […]

[1] = day 2, 10 μM SB, or 10 μM SB + 10 ng/ml BMP4 (SBB)

CCN(CC)CCCCNc1ncc2cc(-c3cc(OC)cc(OC)c3)c(NC(=O)NC(C)(C)C)nc2n1 [PD-173074]
PAX2 expression (qPCR) compared to DMSO controls (OEPD-induced aggregates): likely inhibits PAX2 expression

NC(=O)c1ccc(-c2nc(-c3ccc4c(c3)OCO4)c(-c3ccccn3)[nH]2)cc1 [SB, SB-431542]
aggregates that generated TFAP2+ E-cadherin (ECAD)+ epithelium with surface ectoderm-like morphology (WA25 cell aggregates; 10 μM SB, days 4-6 of differentiation, n=15 aggregates, 3 experiments): 100% | extraembryonic marker CDX2 expression (qPCR) (WA25 cell aggregates; [1]): no corresponding CDX2 expression | non-neural marker genes TFAP2 and DLX3 expression (qPCR) (WA25 cell aggregates; [1]): upregulated; also recorded: increase in TFAP2 and DLX3 expression | cell types generated (marker immunostaining) (mND2-0 iPSCs; mND2-0 iPSCs, day 6, 10 μM SB alone or with 2.5 ng/ml BMP4): generated PAX6^+ neuroectoderm and TFAP2^+ ECAD^− neural crest-like cells

Oc1nc(-c2ccc(C(F)(F)F)cc2)nc2c1CSCC2 [XAV939]
PAX2 expression (qPCR) compared to DMSO controls (OEPD-induced aggregates): only had a modest positive or negative impact on PAX2 expression

B1: BMP4: recombinant human BMP4, agonist of BMP signaling (protein, UniProt P12644 293-408, looked up)
Bone morphogenetic protein 4: SPKHHSQRARKKNKNCRRHSLYVDFSDVGWNDWIVAPPGYQAFYCHGDCPFPLADHLNSTNHAIVQTLVNSVNSSIPKACCVPTELSAISMLYLDEYDKVVLKNYQEMVVEGCGCR
mesendoderm markers BRA and EOMES expression (qPCR) (WA25 cell aggregates; day 2, BMP4 (B) treatment): upregulated | minimum BMP concentration that produced the morphological changes (translucent sphere) (mND2-0 iPSCs; mND2-0 iPSCs with SB, 1.25-40 ng/ml tested, preliminary experiment): 2.5 ng/ml
